Test results taken from ChEMBL document CHEMBL1127954, “A new approach to synthesis of vinblastine analogs. Addition of organozinc reagents to the dihydropyridinium ion generated by fragmentative coupling to catharanthine and vindoline” (Bioorg Med Chem Lett, 1994).
Values joined by “and” are separate entries in the source; they are usually repeats but may differ in a detail not shown here. Equal entries are not always repeated.

target: Tubulin (Bos taurus, UniProt Q6B856+Q862L2+Q862F3); experiment: In vitro inhibitory activity against bovine brain tubulin assembly at a concentration of 3-3.5 mg/ml; assay type: functional

Question: With CCC1CN2CCc3c([nH]c4ccccc34)[C@@](C(=O)OC)(c3cc4c(cc3OC)N(C)C3C45CCN4CC=CC(CC)(C45)C(OC(C)=O)[C@]3(O)C(=O)OC)CC(C2)[C@H]1CC (stereo not given in full) as the compound, how does the IC50 read?
Answer: 1300 nM and 1400 nM

Question: For CCC1=CC2CN(CCc3c([nH]c4ccccc34)[C@@](C(=O)OC)(c3cc4c(cc3OC)N(C)C3C45CCN4CC=CC(CC)(C45)C(OC(C)=O)[C@]3(O)C(=O)OC)C2)[C@@H]1c1ccccc1 (stereo not given in full), which IC50 is on record?
Answer: 1400 nM and 1600 nM

Question: How did the IC50 turn out when CCC1CN2CCc3c([nH]c4ccccc34)[C@@](C(=O)OC)(c3cc4c(cc3OC)N(C)C3C45CCN4CC=CC(CC)(C45)C(OC(C)=O)[C@]3(O)C(=O)OC)CC(C2)[C@H]1c1ccccc1 (stereo not given in full) was run?
Answer: 500 nM and 600 nM

Question: Which IC50 does the source give for CCC1CN2CCc3c([nH]c4ccccc34)[C@@](C(=O)OC)(c3cc4c(cc3OC)N(C)C3C45CCN4CC=CC(CC)(C45)C(OC(C)=O)[C@]3(O)C(=O)OC)CC(C2)[C@H]1C(C)(C)C (stereo not given in full) here?
Answer: 400 nM

Question: How did the IC50 turn out when CCC1=CC2CN(CCc3c([nH]c4ccccc34)[C@@](C(=O)OC)(c3cc4c(cc3OC)N(C)C3C45CCN4CC=CC(CC)(C45)C(OC(C)=O)[C@]3(O)C(=O)OC)C2)[C@@H]1C#Cc1ccccc1 (stereo not given in full) was run?
Answer: 21000 nM and 28000 nM
